Results reported in patent US20260013442A1, “METHOD FOR VEGETATIVE PROPAGATION OF PLANTS” (LETAVIS AB, priority 2020, published 2026).

Tests used:
[1] = test system: cuttings from rose No. 1 (garden rose bush); assay: Callus/root formation on cuttings from rose No. 1 in oxytocin solution; format: in vivo; details: for Grading of callus formation: grading 0-8
Procedure: (§1) Cuttings, about 7 cm long, from the top of a branch of two different roses (rose No. 1 and rose No. 2) and cut directly under a node were put into 100 ml Erlenmeyer flasks with concentrations of oxytocin from 0 to 10 μM (0, 0.5, 1, 2.5, 5 and 10 μM) in tap water. Two cuttings were added to each Erlenmeyer flask. Thereafter, the Erlenmeyer flasks were placed in a growing room under a light intensity of 800 μmol*m^−2*s^−1.
Cuttings in this experiment were taken from a garden rose bush. […] A grading of the effect of different oxytocin concentrations on the formation of callus from the cuttings can be seen in Table 1. Callus can easily be explained as an accumulation of cells that has not developed into any specific tissue, such as root tissues. Best coverage of callus on the cutting surface of the cuttings was obtained at a concentration of oxytocin of 2.5 μM (FIG. 1).

[2] = test system: cuttings from rose No. 2 (mini rose); assay: Callus/root formation on cuttings from rose No. 2 in oxytocin solution; format: in vivo; details: for Grading of callus formation: grading 0-8
Procedure: as §1
Cuttings in this experiment was taken from the small rose bushes in pot bought in a flower shop (mini rose), and put into Erlenmeyer flasks. […] Best effect was obtained at 10 μM oxytocin, followed closely by 2.5 μM oxytocin.
Vigorous development of callus indicates high potential for root formation. To study this effect, the Erlenmeyer flasks with the cuttings from the experiment with rose No. 2 have been covered with aluminium foil.

[3] = test system: cut flowers of roses of the variety Furiosa; assay: Root growth of stalks of cut flowers of the variety Furiosa; format: in vivo, rose
Procedure: Cut flowers of roses of the variety Furiosa, which had obtained at least 2 side shoots from the stalk, were put in water to allow the side shoots to continue to grow. When the side shoots had reached a length of about 5 cm, the stalk was cut by some mm under the lowest side shoot, which was also removed from the stalk. The stalks were then put into 100 ml Erlenmeyer flasks with either water alone or an oxytocin solution. The solution contained either 1, 4 or 8 μM oxytocin. The liquid in the Erlenmeyer flasks was darkened by coating the flasks with aluminium foil. The flasks were placed in daylight.

[4] = test system: cuttings from hibiscuses; assay: Effect of oxytocin on cuttings of hibiscus; format: in vivo; details: 90 days
Source text: […] Five cuttings per treatment were used.
The flasks were covered with aluminum foil and the flasks were kept at room temperature in a window.
The experiment was allowed to run for 90 days whereafter the development of calluses and roots was documented.

[5] = test system: rose cuttings; assay: Effect of different concentrations of oxytocin on cuttings of roses (58 days); format: in vivo; details: for Total No. roots: 4 E-flasks with 2 cuttings; for Number of cuttings with roots / Number of living cuttings / Per cutting No. roots / Per cutting Number of side shoots >10 mm / Per cutting mm root / Vitality: n = 8; for Vitality: grading 0-5
Procedure: On Feb. 11, 2020, cuttings from purchased pots with roses were put into 100 ml Erlenmeyer flasks (E-flasks) with a concentration of oxytocin from 0 to 50 μM (0, 0.5, 1, 5, 10, 20 and 50 μM). The experiment consisted of four E-flasks per concentration with two cuttings in each E-flask. The E-flasks were covered with aluminum foil and placed in a culture room. From day 45, measurements were made every 4-5 days. At day 58, the trial was interrupted.

[6] = test system: potato tubers of the summer variety Perlo; assay: Potato tubers treated with oxytocin before pre-sprouting in sunlight; format: in vivo; details: nineteen days of pre-sprouting
Procedure: Potato tubers of the summer variety Perlo were pre-sprouting in sunlight after treatment with either tap water, 1 μM oxytocin or 10 μm oxytocin for 6 or 24 hours. For each treatment, 8 tubers were treated by placing them in plastic vessels and covered them with the respective test solution. After treatment, the tubers were pre-sprouted in sunlight at about 20° C. Nineteen days later, the number of sprouts were counted for each tuber and the length per sprout was measured.

[7] = 5 μM oxytocin, 31 days, 2 cuttings

## oxytocin
[1]; 0.5 μM oxytocin, 31 days, 2 cuttings
  Grading of callus formation: 6
[1]; 1 μM oxytocin, 31 days, 2 cuttings
  Grading of callus formation: 4
[1]; 2.5 μM oxytocin, 31 days, 2 cuttings
  Grading of callus formation: 7
[1]; [7]
  small roots formed: one
  Grading of callus formation: 6
[1]; 5 μM oxytocin, one of the two cuttings
  length of root developed from callus: 2-3 mm
[1]; 10 μM oxytocin, 31 days, 2 cuttings
  Grading of callus formation: 5
[1]; 5-10 μM oxytocin
  leaf aging: inhibit leaf aging
[1]; 31 days, tested 0-10 μM
  concentration with best coverage of callus on the cutting surface: 2.5 µM
[2]; 0.5 μM oxytocin, 24 days, 2 cuttings
  Grading of callus formation: 2
[2]; 0.5 μM oxytocin, nineteen days after day 24, flasks covered with aluminium foil
  root formation: roots had been formed in all treatments except in 0.5 μM oxytocin
[2]; 1 μM oxytocin, 24 days, 2 cuttings
  Grading of callus formation: 3
[2]; 2.5 μM oxytocin, 24 days, 2 cuttings
  Grading of callus formation: 6
[2]; 5 μM oxytocin, 24 days, 2 cuttings
  Grading of callus formation: 1
[2]; 5 μM oxytocin, nineteen days after day 24, 2 cuttings
  cuttings showing root development: one of the two cuttings
[2]; 10 μM oxytocin, 24 days, 2 cuttings
  Grading of callus formation: 7
[2]; 1-10 μM oxytocin
  development of roots from cuttings: stimulated the development of roots
[2]; 2.5 and 10 μM oxytocin, nineteen days after day 24
  root development: Root development was best
[2]; 5-10 μM oxytocin
  leaf aging: inhibit leaf aging
[2]; 24 days, tested 0-10 μM
  concentration with best effect on development of callus: 10 µM
[3]; 1 μM oxytocin, one month after the 2.5 months
  root quality of stalk: showed the best root
[3]; 4 μM oxytocin, one month after the 2.5 months, secondary fungal growth
  survival of stalks: had died due to a secondary fungal growth
[3]; 1, 4 or 8 μM oxytocin, after about 2.5 months, untreated had died
  root formation on stalks: obtained roots
[3]; 1 and 8 μM oxytocin, one month after the 2.5 months
  root growth on stalks: roots had grown much longer
[4]; 1 μM oxytocin, five cuttings
  Number of cuttings that had developed calluses: One
[4]; 5 μM oxytocin, five cuttings
  Number of cuttings that had developed a root: one
  Number of cuttings that had developed calluses: One
[4]; 5 μM oxytocin, one cutting
  root length: ~2 mm
[4]; 10 μM oxytocin, five cuttings
  Number of cuttings that had developed calluses: two
[5]; 0.5 μM oxytocin, 58 days
  Root length Mean length: 13.3 mm
  Total No. roots: 26
  Number of cuttings with roots: 5
  Number of living cuttings: 7
  Per cutting No. roots: 3.3
  Per cutting Number of side shoots >10 mm: 0.4
  Per cutting mm root: 43 mm
  Vitality: 2.6
[5]; 1 μM oxytocin, 58 days
  Root length Mean length: 17.4 mm
  Total No. roots: 55
  Number of cuttings with roots: 6
  Number of living cuttings: 8
  Per cutting No. roots: 6.9
  Per cutting Number of side shoots >10 mm: 1
  Per cutting mm root: 119 mm
  Vitality: 3.5
[5]; 5 μM oxytocin
  time after which all cuttings had developed roots: 50 days
[5]; 5 μM oxytocin, 58 days
  Root length Mean length: 11.6 mm
  Total No. roots: 51
  Number of cuttings with roots: 7
  Number of living cuttings: 7
  Per cutting No. roots: 6.4
  Per cutting Number of side shoots >10 mm: 0.6
  Per cutting mm root: 76 mm
  Vitality: 2.5
[5]; 5 μM oxytocin, day 45
  cuttings that had developed roots: five out of seven
[5]; 10 μM and 50 μM oxytocin
  delay until all cuttings had roots, compared with 5 μM oxytocin: 4 to 8 days
[5]; 10 μM oxytocin, 58 days
  Root length Mean length: 11.4 mm
  Total No. roots: 46
  Number of cuttings with roots: 7
  Number of living cuttings: 7
  Per cutting No. roots: 5.8
  Per cutting Number of side shoots >10 mm: 0.5
  Per cutting mm root: 66 mm
  Vitality: 2.9
[5]; 20 μM oxytocin, 58 days
  Root length Mean length: 12.7 mm
  Total No. roots: 46
  Number of cuttings with roots: 5
  Number of living cuttings: 6
  Per cutting No. roots: 5.8
  Per cutting Number of side shoots >10 mm: 0.5
  Per cutting mm root: 72 mm
  Vitality: 2.3
[5]; 50 μM oxytocin, 58 days
  Root length Mean length: 10.0 mm
  Total No. roots: 52
  Number of cuttings with roots: 8
  Number of living cuttings: 8
  Per cutting No. roots: 6.5
  Per cutting Number of side shoots >10 mm: 0.4
  Per cutting mm root: 65 mm
  Vitality: 3.5
[5]; 50 μM oxytocin, day 45
  cuttings that had developed callus: all cuttings
[5]; 1, 5 and 10 μM oxytocin, day 45
  cuttings that had calluses: all but one of the living cuttings
[5]; 6 cuttings per concentration (FIG. 7)
  concentration giving most roots and longest total length of roots per cutting: 1 µM
[5]; 58 days, tested 0-50 μM
  concentration most potent for callus and roots at nodes higher up on the stem: 20 µM
[5]; concentrations of 1 M and above, 58 days, compared to 30 at 0 μM
  total amount of roots formed, average over concentrations: 50.5 mm
[6]; 1 μM oxytocin for 6 hours
  percentage increase of long sprouts (over 5 mm) compared to tap water for 6 hours: 124%
[6]; 1 μM oxytocin for 24 hours
  percentage increase in number of shoots compared to tap water for 6 hours: 34.6%
  percentage increase of long sprouts (over 5 mm) compared to tap water for 6 hours: 112.5%
[6]; 10 μM oxytocin for 6 hours
  percentage increase of long sprouts (over 5 mm) compared to tap water for 6 hours: 100%
[6]; 10 μM oxytocin for 24 hours
  percentage increase in number of shoots compared to tap water for 6 hours: 37.5%
